Source: US20040176431A1, “Antiproliferative 2-(sulfo-phenyl)-aminothiazole derivatives and pharmaceutical compositions, and methods for their use” (Pfizer, Inc., priority 2003, published 2004)

Columns and labels:
[1] = target: T1, CDK4/cyclin D3 (Homo sapiens, UniProt P11802); assay: Inhibition of CDK4/Cyclin D retinoblastoma kinase activity; format: biochemical; settings: apparent Ki, Rb fragment substrate
T1 construct: made in house; host or cells: insect cells (baculovirus co-infection)
In short: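 Human CDK4 with truncated cyclin D3 (1-264) from baculovirus-infected insect cells, 5 nM, phosphorylating His-tagged Rb fragment (386-928) with 25 μM [32P/33P]ATP in pH 7.4 HEPES/MgCl2, 2% DMSO, 30° C., 20 min (60 min for tight binders). Filter capture, phosphorimager; apparent Ki from competitive or tight-binding competitive fits.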

[2] = tested on: HCT-116 cells; assay: Inhibition of cell growth (MTT tetrazolium salt assay); format: cell-based; settings: Homo sapiens; for IC50: read-out: HCT116 IC50; for IC90: read-out: HCT116 IC90
Method: Inhibition of cell growth was measured using the tetrazolium salt assay, which is based on the ability of viable cells to reduce 3-(4,5-dimethylthiazol-2-yl)-2,5-[2H]-diphenyltetrazolium bromide (MTT) to formazan (Mosmann, J. Immunol. Meth., 65, 55-63 (1983)). The water-insoluble purple formazan product was then detected spectrophotometrically. HCT-116 cells were grown in 96-well plates. Cells were plated in the appropriate medium at a volume of 135 μl/well in either McCoy's 5A Medium. Plates were incubated for four hours before addition of inhibitor compounds. Different concentrations of inhibitor compounds were added in 0.5% (v/v) dimethylsulfoxide (15 μL/well), and cells were incubated at 37° C. (5% CO2) for four to six days (depending on cell type). At the end of the incubation, MTT was added to a final concentration of 0.2 mg/mL, and cells were incubated for 4 hours more at 37° C. After centrifugation of the plates and removal of medium, the absorbance of the formazan (solubilized in dimethylsulfoxide) was measured at 540 nm. […] All results were compared to control cells treated only with 0.5% (v/v) dimethylsulfoxide.

[3] = target: T2, CDK2/cyclin A (Homo sapiens, UniProt P24941); assay: Inhibition of CDK2/Cyclin A retinoblastoma kinase activity; format: biochemical; settings: apparent Ki, Rb fragment substrate
T2 construct: made in house; host or cells: CDK2: insect cells (baculovirus); cyclin A: E. coli, then limited proteolysis
Method: Cyclin-dependent kinase activity was measured by quantifying the enzyme-catalyzed, time-dependent incorporation of radioactive phosphate from [^32P]ATP or [^33P]ATP into a protein substrate. Unless noted otherwise, assays were performed in 96-well plates in a total volume of 50 μL, in the presence of 10 mM HEPES (N-[2-hydroxyethyl]piperazine-N′-[2-ethanesulfonic acid]) (pH 7.4), 10 mM MgCl2, 25 μM adenosine triphosphate (ATP), 1 mg/mL ovalbumin, 5 μg/mL leupeptin, 1 mM dithiothreitol, 10 mM β-glycerophosphate, 0.1 mM sodium vanadate, 1 mM sodium fluoride, 2.5 mM ethylene glycol-bis(β-aminoethyl ether)-N,N,N′N′-tetraacetic acid (EGTA), 2% (v/v) dimethylsulfoxide, and 0.03-0.4 μCi [^32/33P]ATP per reaction. Reactions were initiated with enzyme, incubated at 30° C., and terminated after 20 minutes by the addition of ethylenediaminetetraacetic acid (EDTA) to 250 mM. The phosphorylated substrate was then captured on a nitrocellulose or phosphocellulose membrane using a 96-well filtration manifold, and unincorporated radioactivity was removed by repeated washing with 0.85% phosphoric acid. Radioactivity was quantified by exposing the dried membranes to a phosphorimager.
Inhibition was measured relative to control wells that contained all reaction components including 2% (v/v) DMSO but no compound, after subtraction of background radioactivity measured in the absence of enzyme. Apparent Ki values of discrete compounds were measured by assaying enzyme activity in the presence of different inhibitor compound concentrations and subtracting the background radioactivity measured in the absence of enzyme. The kinetic parameters (kcat, Km for ATP) were measured for each enzyme under the usual assay conditions by determining the dependence of initial rates on ATP concentration. Inhibition data were fit to an equation for competitive inhibition using Kaleidagraph (Synergy Software), or were fit to an equation for competitive tight-binding inhibition using the software KineTic (BioKin, Ltd.).
CDK2 was purified using published methodology (Rosenblatt et al., J. Mol. Biol., 230, 1317-1319 (1993)) from insect cells that had been infected with a baculovirus expression vector. Cyclin A was purified from E. coli cells expressing full-length recombinant cyclin A, and a truncated cyclin A construct was generated by limited proteolysis and purified as described previously (Jeffrey et al., Nature, 376, 313-320 (1995)). A complex of CDK2 and proteolyzed cyclin A was prepared and purified by gel filtration. The substrate for this assay was the same Rb substrate fragment used for the CDK4 assays, and the methodology of the CDK2/delta cyclin A and the CDK4/delta cyclin D3 assays was essentially the same, except that CDK2 was present at 10 nM or 19 nM. The duration of the assay was 60 or 75 minutes, during which the time-dependence of product formation was linear and initial rate conditions were met.

T1 sequence (P11802 whole entry, the tested form may be a part): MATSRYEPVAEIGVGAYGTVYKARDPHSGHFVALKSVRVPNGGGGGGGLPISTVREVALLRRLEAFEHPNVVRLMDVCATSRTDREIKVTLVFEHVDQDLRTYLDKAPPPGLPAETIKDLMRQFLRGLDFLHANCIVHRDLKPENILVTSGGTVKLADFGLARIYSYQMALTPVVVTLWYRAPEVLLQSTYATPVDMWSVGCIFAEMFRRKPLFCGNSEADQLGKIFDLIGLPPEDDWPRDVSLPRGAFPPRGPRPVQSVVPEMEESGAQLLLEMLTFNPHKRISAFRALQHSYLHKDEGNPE
T1 sequence (P30281 1-264 partner limits assumed): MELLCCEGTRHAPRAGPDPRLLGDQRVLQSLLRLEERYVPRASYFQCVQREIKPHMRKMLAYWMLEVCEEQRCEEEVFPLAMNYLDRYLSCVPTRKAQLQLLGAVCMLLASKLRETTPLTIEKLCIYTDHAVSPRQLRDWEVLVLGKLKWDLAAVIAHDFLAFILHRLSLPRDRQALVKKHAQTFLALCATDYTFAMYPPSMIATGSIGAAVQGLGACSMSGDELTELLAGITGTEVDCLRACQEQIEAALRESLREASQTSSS

Which results are given for `CC(CCCC(C)(C)O)NS(=O)(=O)c1ccc(Nc2nc(N)c(C(=O)c3c(F)cc(F)cc3F)s2)cc1` (centres unmarked) [B(2), 4-[4-Amino-5-(2,4,6-trifluoro-benzoyl)-thiazol-2-ylamino]-N-(5-hydroxy-1,5-dimethyl-hexyl)-benzenesulfonamide]?
Ki [1]: 6.2 nM; IC50 [2]: 980 nM; IC90 [2]: 2300 nM; Ki [3]: 1.3 nM

Which results are given for `Nc1nc(Nc2ccc(S(=O)(=O)NC3CCNCC3)cc2)sc1C(=O)c1c(F)cccc1F` [BB(1), 4-[4-Amino-5-(2,6-difluoro-benzoyl)-thiazol-2-ylamino]-N-piperidin-4-yl-benzenesulfonamide]?
Ki [1]: 13 nM; IC50 [2]: 22000 nM; IC90 [2]: > 50000 nM; Ki [3]: 13 nM

With `Nc1nc(Nc2ccc(S(=O)(=O)Nc3ccccc3)cc2)sc1C(=O)c1c(F)cccc1F` [C(1), 4-[4-Amino-5-(2,6-difluoro-benzoyl)-thiazol-2-ylamino]-N-phenyl-benzenesulfonamide] as the compound, how does the Ki [1] read?
The Ki was 76 nM.

And the IC50 [2]?
The IC50 was 870 nM.

And the IC90 [2]?
Its IC90 is 1900 nM.

What about the Ki [3] of the same compound?
The Ki was 17 nM.

`Cc1ccsc1C(=O)c1sc(Nc2ccc(S(N)(=O)=O)cc2)nc1N` [C(48)*, reference compound] was tested. Which Ki [1] did it give?
The Ki was 19.1 nM.

What about the IC50 [2] of the same compound?
Its IC50 is 340 nM.

What about the Ki [3] of the same compound?
The Ki was 11 nM.

`Nc1nc(Nc2ccc(S(=O)(=O)NCC3CCCNC3)cc2)sc1C(=O)c1c(F)cccc1F` (centres unmarked) [D(1), 4-[4-Amino-5-(2,6-difluoro-benzoyl)-thiazol-2-ylamino]-N-piperidin-3-ylmethyl-benzenesulfonamide] was tested. Which Ki [1] did it give?
Its Ki is 12 nM.

And the IC50 [2]?
The IC50 was 17000 nM.

And the IC90 [2]?
The IC90 was greater than 25000 nM.

What about the Ki [3] of the same compound?
The Ki was 18 nM.

Which results are given for `Nc1nc(Nc2ccc(S(=O)(=O)NCC3CCCCN3)cc2)sc1C(=O)c1c(F)cccc1F` (centres unmarked) [D(2), 4-[4-Amino-5-(2,6-difluoro-benzoyl)-thiazol-2-ylamino]-N-piperidin-2-ylmethyl-benzenesulfonamide]?
Ki [1]: 20 nM; IC50 [2]: 4000 nM; IC90 [2]: 9200 nM; Ki [3]: 45 nM

How did the Ki [1] turn out when `CNCCNS(=O)(=O)c1ccc(Nc2nc(N)c(C(=O)c3c(F)cccc3F)s2)cc1` [D(3), 4-[4-Amino-5-(2,6-difluoro-benzoyl)-thiazol-2-ylamino]-N-(2-methylamino-ethyl)-benzenesulfonamide] was run?
The Ki was 5.7 nM.

What about the IC50 [2] of the same compound?
The IC50 was 2900 nM.

What about the IC90 [2] of the same compound?
Its IC90 is greater than 5000 nM.

What about the Ki [3] of the same compound?
The Ki was 9.4 nM.

Which Ki [1] does the source give for `Cc1csc(NS(=O)(=O)c2ccc(Nc3nc(N)c(C(=O)c4c(F)cccc4F)s3)cc2)n1` [E(1), 4-[4-Amino-5-(2,6-difluoro-benzoyl)-thiazol-2-ylamino]-N-(4-methyl-thiazol-2-yl)-benzenesulfonamide] here?
The Ki was 42 nM.

And the IC50 [2]?
Its IC50 is 7000 nM.

And the IC90 [2]?
The IC90 was 17000 nM.

What about the Ki [3] of the same compound?
Its Ki is 15 nM.

What does the source list for `Nc1nc(Nc2ccc(S(=O)(=O)N3CCNCC3)cc2)sc1C(=O)c1c(F)cccc1F` [Example A(1), {4-Amino-2-[4-(piperazine-1-sulfonyl)-phenylamino]-thiazol-5-yl}-(2,6-difluoro-phenyl)-methanone]?
Ki [1]: 26 nM; IC50 [2]: 1000 nM; IC90 [2]: 2700 nM; Ki [3]: 14 nM

Which Ki [1] does the source give for `CN(C)CCNS(=O)(=O)c1ccc(Nc2nc(N)c(C(=O)c3c(F)cccc3F)s2)cc1` [Example A(2), 4-[4-Amino-5-(2,6-difluoro-benzoyl)-thiazol-2-ylamino]-N-(2-dimethylamino-ethyl)-benzenesulfonamide] here?
Its Ki is 7.5 nM.

And the IC50 [2]?
Its IC50 is 360 nM.

What about the IC90 [2] of the same compound?
Its IC90 is 1100 nM.

And the Ki [3]?
Its Ki is 4.5 nM.

`COCCNS(=O)(=O)c1ccc(Nc2nc(N)c(C(=O)c3c(F)cccc3F)s2)cc1` [Example A(3)] was tested. Which Ki [1] did it give?
Its Ki is 53 nM.

What about the IC50 [2] of the same compound?
The IC50 was 340 nM.

What about the IC90 [2] of the same compound?
Its IC90 is 720 nM.

And the Ki [3]?
The Ki was 3.5 nM.

Which results are given for `Nc1nc(Nc2ccc(S(=O)(=O)NCCO)cc2)sc1C(=O)c1c(F)cccc1F` [Example A(4), 4-[4-Amino-5-(2,6-difluoro-benzoyl)-thiazol-2-ylamino]-N-(2-hydroxy-ethyl)-benzenesulfonamide]?
Ki [1]: 28 nM; IC50 [2]: 1000 nM; IC90 [2]: 2800 nM; Ki [3]: 4.5 nM

Which results are given for `Nc1nc(Nc2ccc(S(=O)(=O)NCCCCO)cc2)sc1C(=O)c1c(F)cccc1F` [Example A(5), 4-[4-Amino-5-(2,6-difluoro-benzoyl)-thiazol-2-ylamino]-N-(4-hydroxy-butyl)-benzenesulfonamide]?
Ki [1]: 24 nM; IC50 [2]: 1300 nM; IC90 [2]: 3000 nM; Ki [3]: 5.7 nM

Which Ki [1] does the source give for `Nc1nc(Nc2ccc(S(=O)(=O)NCCOCCO)cc2)sc1C(=O)c1c(F)cccc1F` [Example A(6), 4-[4-Amino-5-(2,6-difluoro-benzoyl)-thiazol-2-ylamino]-N-[2-(2-hydroxy-ethoxy)-ethyl]-benzenesulfonamide] here?
Its Ki is 26 nM.

What about the IC50 [2] of the same compound?
The IC50 was 1900 nM.

And the IC90 [2]?
The IC90 was 4200 nM.

What about the Ki [3] of the same compound?
The Ki was 5.3 nM.

What does the source list for `Nc1nc(Nc2ccc(S(=O)(=O)NCCCN3CCCC3)cc2)sc1C(=O)c1c(F)cccc1F` [Example A(8), 4-[4-Amino-5-(2,6-difluoro-benzoyl)-thiazol-2-ylamino]-N-(3-pyrrolidin-1-yl-propyl)-benzenesulfonamide]?
Ki [1]: 9.9 nM; IC50 [2]: 2400 nM; IC90 [2]: 5000 nM; Ki [3]: 11 nM

Which Ki [1] does the source give for `Nc1nc(Nc2ccc(S(=O)(=O)NCCNc3ccccc3)cc2)sc1C(=O)c1c(F)cccc1F` [Example A(9), 4-[4-Amino-5-(2,6-difluoro-benzoyl)-thiazol-2-ylamino]-N-(2-phenylamino-ethyl)-benzenesulfonamide] here?
Its Ki is less than 5 nM.

What about the IC50 [2] of the same compound?
Its IC50 is 140 nM.

And the IC90 [2]?
Its IC90 is 400 nM.

And the Ki [3]?
The Ki was less than 5 nM.

With `CC(C)OCCCNS(=O)(=O)c1ccc(Nc2nc(N)c(C(=O)c3c(F)cccc3F)s2)cc1` [Example A(10), 4-[4-Amino-5-(2,6-difluoro-benzoyl)-thiazol-2-ylamino]-N-(3-isopropoxy-propyl)-benzenesulfonamide] as the compound, how does the Ki [1] read?
The Ki was 12 nM.

What about the IC50 [2] of the same compound?
Its IC50 is 900 nM.

And the IC90 [2]?
Its IC90 is 2200 nM.

What about the Ki [3] of the same compound?
The Ki was 2.2 nM.

How did the Ki [1] turn out when `CC(CCCC(C)(C)O)NS(=O)(=O)c1ccc(Nc2nc(N)c(C(=O)c3c(F)cccc3F)s2)cc1` (centres unmarked) [Example A(12), 4-[4-Amino-5-(2,6-difluoro-benzoyl)-thiazol-2-ylamino]-N-(5-hydroxy-1,5-dimethyl-hexyl)-benzenesulfonamide] was run?
Its Ki is 4.2 nM.

And the IC50 [2]?
Its IC50 is 150 nM.

And the IC90 [2]?
The IC90 was 630 nM.

What about the Ki [3] of the same compound?
Its Ki is less than 5 nM.

How did the Ki [1] turn out when `CCN(CC)CCCNS(=O)(=O)c1ccc(Nc2nc(N)c(C(=O)c3c(F)cccc3F)s2)cc1` [Example A(13), 4-[4-Amino-5-(2,6-difluoro-benzoyl)-thiazol-2-ylamino]-N-(3-diethylamino-propyl)-benzenesulfonamide] was run?
Its Ki is 8.9 nM.

And the IC50 [2]?
The IC50 was 730 nM.

And the IC90 [2]?
Its IC90 is 3000 nM.

And the Ki [3]?
The Ki was 10 nM.

With `Nc1nc(Nc2ccc(S(=O)(=O)NCCCN3CCCCC3)cc2)sc1C(=O)c1c(F)cccc1F` [Example A(14), 4-[4-Amino-5-(2,6-difluoro-benzoyl)-thiazol-2-ylamino]-N-(3-piperidin-1-yl-propyl)-benzenesulfonamide] as the compound, how does the Ki [1] read?
The Ki was 8.1 nM.

And the IC50 [2]?
Its IC50 is 420 nM.

What about the IC90 [2] of the same compound?
The IC90 was 1700 nM.

What about the Ki [3] of the same compound?
The Ki was 6 nM.

With `CC1CCCCN1CCCNS(=O)(=O)c1ccc(Nc2nc(N)c(C(=O)c3c(F)cccc3F)s2)cc1` (centres unmarked) [Example A(15), 4-[4-Amino-5-(2,6-difluoro-benzoyl)-thiazol-2-ylamino]-N-[3-(2RS-methyl-piperidin-1-yl)-propyl]-benzenesulfonamide] as the compound, how does the Ki [1] read?
The Ki was 8.4 nM.

And the IC50 [2]?
Its IC50 is 460 nM.

And the IC90 [2]?
The IC90 was 1800 nM.

What about the Ki [3] of the same compound?
The Ki was 8.2 nM.
